According to PubChem BioAssay AID624385 (Sanford-Burnham Center for Chemical Genomics, 2012):
The source made the active and inactive calls. The rule behind the calls is not given here.

Molecular target: Small ubiquitin-related modifier 2 (Homo sapiens) (UniProt P61956)
Assay: SUMO2–SIM peptide binding inhibitors, dose response, selectivity assay for SUMO1 interaction inhibitor project, biochemical, fluorescence polarization, uHTS hits (AID 624385)

Chain of Small ubiquitin-related modifier 2 (Homo sapiens) (P61956 whole entry, looked up): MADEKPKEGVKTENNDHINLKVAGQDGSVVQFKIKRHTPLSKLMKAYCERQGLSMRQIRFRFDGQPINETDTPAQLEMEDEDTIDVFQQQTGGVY

`N#CC(C(=O)Nc1cccc(Cl)c1)=C1Nc2ccccc2N1` was tested, and the IC50 was > 66 µM (inactive).
For `C[c-]1[c-](C)[c-](C)[c-](C)[c-]1C.[Fe].c1cc2nccc(N3CCCC3)[c-]2c1` (configuration not stated), the IC50 was “inactive”.
